Experimental data taken from US20180057505A1, “BICYCLIC HETEROARYL COMPOUNDS USEFUL AS INHIBITORS OF THE PAR-2 SIGNALING PATHWAY” (VERTEX PHARMACEUTICALS INCORPORATED, priority 2015, published 2018).

What was measured:
Format in all cases: cell-based
[1] = system: UTP-stimulated Ca2+ response in HT-29 cells; assay: Ca FLIPR TETRA assay, ANTAGONIST mode, activator 0.6 μM UTP; conditions: Homo sapiens; HT-29 cells, activator 0.6 μM UTP
Procedure, shortened: (§1)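 Ca2+ flux by FLIPR Tetra in HT-29 cells after 30 min r.t. compound preincubation, followed by stimulation with SLIGKV 8 μM, thrombin 1 U/mL, trypsin 3.1 U/mL or UTP 0.6 μM (final). Cells were dye-loaded with calcium 5 beforehand; compound-only responses were also read.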

[2] = system: Thrombin-stimulated Ca2+ response in HT-29 cells; assay: Ca FLIPR TETRA assay, ANTAGONIST mode, activator 1 U/mL Thrombin; conditions: Homo sapiens; HT-29 cells, activator 1 U/mL Thrombin
Procedure, shortened: as §1

PAR2 (HT-29 cells) [3] = target: T1, PAR2 (HT-29 cells) (Homo sapiens, UniProt P55085); assay: Ca FLIPR TETRA assay, ANTAGONIST mode, activator 8 μM SLIGKV; conditions: HT-29 cells, activator 8 μM SLIGKV; maximal antagonist concentration per Method (A: 0.1, 1 or 2 μM; B: 50 μM)
T1 construct: host or cells: HT-29
T1 sequence (P55085 26-397): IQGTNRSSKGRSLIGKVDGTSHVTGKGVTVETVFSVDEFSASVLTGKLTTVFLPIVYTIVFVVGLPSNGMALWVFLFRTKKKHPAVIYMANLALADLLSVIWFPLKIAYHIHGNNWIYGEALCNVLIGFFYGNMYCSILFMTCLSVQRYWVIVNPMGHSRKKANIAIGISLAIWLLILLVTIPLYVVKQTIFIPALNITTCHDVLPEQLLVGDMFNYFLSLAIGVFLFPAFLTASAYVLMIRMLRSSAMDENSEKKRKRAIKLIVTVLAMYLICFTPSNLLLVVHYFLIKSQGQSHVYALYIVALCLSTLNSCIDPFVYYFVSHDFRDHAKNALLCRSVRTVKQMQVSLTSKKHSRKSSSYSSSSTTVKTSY
Procedure, shortened: as §1

PAR2 (HT-29 cells) [4] = target: T1, PAR2 (HT-29 cells); assay: Ca FLIPR TETRA assay, ANTAGONIST mode, activator 3.1 U/mL trypsin; conditions: HT-29 cells, activator 3.1 U/mL trypsin; maximal antagonist concentration per Method (A: 0.1, 1 or 2 μM; B: 50 μM)
Procedure, shortened: as §1

Row | SMILES | IC50 [1] [nM] | IC50 [2] [nM] | IC50 (PAR2 (HT-29 cells) [3]) [nM] | IC50 (PAR2 (HT-29 cells) [4]) [nM]
1 | CC(C)c1cc(-c2ccc(F)cc2)nc2cc(C(=O)N3CCN(S(=O)(=O)c4cn[nH]c4)CC3(C)C)oc12 [Example I-147] | > 1000 | > 1000 | 20 | 34
2 | CC(C)c1cc(-c2ccc(F)cc2)nc2cc(C(=O)N3CCN(S(=O)(=O)c4ccn(C)n4)CC3(C)C)oc12 [Example I-148] | > 1000 | > 1000 | 46 | 36
3 | CCc1cc(-c2ccc(F)cc2)nc2cc(C(=O)N3CCN(C(=O)[C@H]4C[C@](O)(C(F)(F)F)C4)CC3(C)C)oc12 [Example I-150] | > 1000 | > 1000 | 1.1 | 1.6
4 | CC(C)(C)c1cc(-c2ccc(F)cc2)nc2cc(C(=O)N3CCN(C(=O)[C@H]4C[C@@](C)(O)C4)CC3(C)C)oc12 [Example I-151] | > 1000 | > 1000 | 1.5 | 2.7
5 | CC(C)(C)c1cc(-c2ccc(F)cc2)nc2cc(C(=O)N3CCN(C(=O)c4ccn[nH]4)CC3(C)C)oc12 [Example I-152] | > 1000 | > 1000 | 8.1 | 7.7
6 | CC(C)(C)c1cc(-c2ccc(F)cc2)nc2cc(C(=O)N3CCN(C(=O)c4nnc[nH]4)CC3(C)C)oc12 [Example I-154] | > 1000 | > 1000 | 4.7 | 3.6
7 | CC(C)(C)c1cc(-c2ccc(C(F)(F)F)cc2)nc2cc(C(=O)N3CCN(C(=O)[C@H]4C[C@@](C)(O)C4)CC3(C)C)oc12 [Example I-158] | > 1000 | > 1000 | 3.1 | 3.9
8 | CC(C)(C)c1cc(-c2ccc(Cl)cc2)nc2cc(C(=O)N3CCN(C(=O)[C@H]4C[C@@](C)(O)C4)CC3(C)C)oc12 [Example I-159] | > 1000 | > 1000 | 0.6 | 1.1
9 | Cc1cc(-c2cc(C(C)(C)C)c3oc(C(=O)N4CCN(C(=O)c5nnc[nH]5)CC4(C)C)cc3n2)ccc1F [Example I-162] | > 1000 | > 1000 | 10 | 15
10 | Cc1cc(-c2cc(C(C)(C)C)c3oc(C(=O)N4CCN(C(=O)[C@H]5C[C@@](C)(O)C5)CC4(C)C)cc3n2)ccc1F [Example I-163] | > 1000 | > 1000 | 2.9 | 3.6
11 | Cc1nnc(C(=O)N2CCN(C(=O)c3cc4nc(-c5ccc(F)c(C)c5)cc(C(C)(C)C)c4o3)C(C)(C)C2)[nH]1 [Example I-166] | > 1000 | > 1000 | 1.3 | 3.3
12 | Cc1cc(-c2cc(C(C)(C)C)c3oc(C(=O)N4CCN(C(=O)c5ccn[nH]5)CC4(C)C)cc3n2)ccc1F [Example I-167] | > 1000 | > 1000 | 8.4 | 19
13 | CC(C)(C)c1cc(-c2ccc(Cl)cc2)nc2cc(C(=O)N3CCN(C(=O)c4ccn[nH]4)CC3(C)C)oc12 [Example I-168] | > 1000 | > 1000 | 2.8 | 3
14 | CC(C)(C)c1cc(-c2ccc(Cl)cc2)nc2cc(C(=O)N3CCN(C(=O)c4nnc[nH]4)CC3(C)C)oc12 [Example I-169] | > 1000 | > 1000 | 0.9 | 2.4
15 | Cc1ncc(C(=O)N2CCN(C(=O)c3cc4nc(-c5ccc(C(F)(F)F)cc5)cc(C(C)(C)C)c4o3)C(C)(C)C2)[nH]1 [Example I-170] | > 1000 | > 1000 | 6 | 8.2
16 | Cc1cc(C(=O)N2CCN(C(=O)c3cc4nc(-c5ccc(C(F)(F)F)cc5)cc(C(C)(C)C)c4o3)C(C)(C)C2)[nH]n1 [Example I-171] | > 1000 | > 1000 | 5.6 | 6.6
17 | CC(C)(C)c1cc(-c2ccc(C(F)(F)F)cc2)nc2cc(C(=O)N3CCN(C(=O)c4nnc[nH]4)CC3(C)C)oc12 [Example I-173] | > 1000 | > 1000 | 4.8 | 7.5
18 | Cc1nnc(C(=O)N2CCN(C(=O)c3cc4nc(-c5ccc(C(F)(F)F)cc5)cc(C(C)(C)C)c4o3)C(C)(C)C2)[nH]1 [Example I-174] | > 1000 | > 1000 | 1.9 | 3.2
19 | Cc1nnc(C(=O)N2CCN(C(=O)c3cc4nc(-c5ccc(C(F)(F)F)cc5)cc(C(C)(C)C)c4o3)C(C)(C)C2)o1 [Example I-175] | > 1000 | > 1000 | 16 | 16
20 | Cc1nnc(C(=O)N2CCN(C(=O)c3cc4nc(-c5ccc(Cl)cc5)cc(C(C)(C)C)c4o3)C(C)(C)C2)o1 [Example I-179] | > 1000 | > 1000 | 2.8 | 5.5
21 | CC(C)(C)c1cc(-c2ccc(Cl)c(F)c2)nc2cc(C(=O)N3CCN(C(=O)c4ncn[nH]4)CC3(C)C)oc12 [Example I-181] | > 1000 | > 1000 | 0.9 | 1.6
22 | CC(C)(C)c1cc(-c2ccc(F)cc2)nc2cc(C(=O)N3CCN(C(=O)c4ncccn4)CC3(C)C)oc12 [Example I-184] | > 1000 | > 1000 | 5.7 | 12

Continued, values first:

Row | IC50 [1] [nM] | IC50 [2] [nM] | IC50 (PAR2 (HT-29 cells) [3]) [nM] | IC50 (PAR2 (HT-29 cells) [4]) [nM] | SMILES
23 | > 1000 | > 1000 | 7.6 | 9.6 | CC(C)(C)c1cc(-c2ccc(F)cc2)nc2cc(C(=O)N3CCNC(=O)C3(C)C)oc12 [Example I-149]
24 | > 1000 | > 1000 | 4.9 | 3 | CC(C)(C)c1cc(-c2ccc(Cl)cc2)nc2cc(C(=O)N3CCNC(=O)C3(C)C)oc12 [Example I-153, 4-[7-tert-butyl-5-(4-chlorophenyl)furo[3,2-b]pyridine-2-carbonyl]-3,3-dimethyl-piperazin-2-one]
25 | > 1000 | > 1000 | 14 | 28 | CC(C)c1cc(-c2ccc(C(F)(F)F)cc2)nc2cc(C(=O)N3CCNC(=O)C3(C)C)oc12 [Example I-155]
26 | > 1000 | > 1000 | 18 | 26 | CC(C)(C)c1cc(-c2ccc(C(F)(F)F)cc2)nc2cc(C(=O)N3CCNC(=O)C3(C)C)oc12 [Example I-156]
27 | > 1000 | > 1000 | 1.6 | 3.1 | Cc1nnc(C(=O)N2CCN(C(=O)c3cc4nc(-c5ccc(F)cc5)cc(C(C)(C)C)c4o3)C(C)(C)C2)[nH]1 [Example I-160]
28 | > 1000 | > 1000 | 16 | 25 | Cc1cc(-c2cc(C(C)(C)C)c3oc(C(=O)N4CCNC(=O)C4(C)C)cc3n2)ccc1F [Example I-161]
29 | > 1000 | > 1000 | 2.9 | 4 | Cc1ccc(-c2cc(C(C)(C)C)c3oc(C(=O)N4CCN(C(=O)[C@H]5C[C@@](C)(O)C5)CC4(C)C)cc3n2)cc1 [Example I-164]
30 | > 1000 | > 1000 | 16 | 19 | Cc1ccc(-c2cc(C(C)(C)C)c3oc(C(=O)N4CCNC(=O)C4(C)C)cc3n2)cc1 [Example I-165]
31 | > 1000 | > 1000 | 10 | 12 | CC(C)(C)c1cc(-c2ccc(Cl)c(F)c2)nc2cc(C(=O)N3CCNC(=O)C3(C)C)oc12 [Example I-172, 4-[7-tert-butyl-5-(4-chloro-3-fluoro-phenyl)furo[3,2-b]pyridine-2-carbonyl]-3,3-dimethyl-piperazin-2-one]
32 | > 1000 | > 1000 | 1.4 | 2 | Cc1cc(C(=O)N2CCN(C(=O)c3cc4nc(-c5ccc(Cl)cc5)cc(C(C)(C)C)c4o3)C(C)(C)C2)[nH]n1 [Example I-177]
33 | > 1000 | > 1000 | 0.7 | 1 | Cc1nnc(C(=O)N2CCN(C(=O)c3cc4nc(-c5ccc(Cl)cc5)cc(C(C)(C)C)c4o3)C(C)(C)C2)[nH]1 [Example I-178]
34 | > 1000 | > 1000 | 1.1 | 2.3 | Cc1ncc(C(=O)N2CCN(C(=O)c3cc4nc(-c5ccc(Cl)cc5)cc(C(C)(C)C)c4o3)C(C)(C)C2)[nH]1 [Example I-180]
35 | > 1000 | > 1000 | 1.1 | 5.8 | CC(C)(C)c1cc(-c2ccc(F)cc2)nc2cc(C(=O)N3CCN(c4cn[nH]c4)C(=O)C3(C)C)oc12 [Example I-182]
36 | > 1000 | > 1000 | 2.6 | 9.1 | Cc1nnc(C(=O)N2CCN(C(=O)c3cc4nc(-c5ccc(F)cc5)cc(C(C)(C)C)c4o3)C(C)(C)C2)o1 [Example I-183]
